Results taken from ChEMBL document CHEMBL1614629, “Extrapolation of human pharmacokinetic parameters from rat, dog, and monkey data: Molecular properties associated with extrapolative success or failure” (J Pharm Sci, 2005).

Assays:
[1] = Clearance in rat after iv administration; assay type: ADME, organism-based; settings: in vivo
[2] = Volume of distribution at steady state in monkey after iv administration; assay type: ADME, organism-based; settings: macaca, in vivo, read-out: Vdss
[3] = Volume of distribution at steady state in rat after iv administration; assay type: ADME, organism-based; settings: in vivo
[4] = Volume of distribution at steady state in dog after iv administration; assay type: ADME, organism-based, Canis lupus familiaris; settings: in vivo, read-out: Vdss
[5] = Volume of distribution at steady state in human after iv administration; assay type: ADME, organism-based; settings: in vivo, read-out: Vdss
[6] = Clearance in dog after iv administration; assay type: ADME, organism-based, Canis lupus familiaris; settings: in vivo
[7] = Clearance in monkey after iv administration; assay type: ADME, organism-based; settings: macaca, in vivo
[8] = Clearance in human after iv administration; assay type: ADME, organism-based; settings: in vivo

| SMILES | clearance [1] | Vd [2] | Vdss [3] | Vd [4] | Vd [5] | clearance [6] | clearance [7] | clearance [8] |
| --- | --- | --- | --- | --- | --- | --- | --- | --- |
| CO[C@@]1(NC(=O)C(C(=O)[O-])c2ccc(O)cc2)C(=O)N2C(C(=O)[O-])=C(CSc3nnnn3C)CO[C@@H]21.[Na+].[Na+] (stereo partly drawn) [MOXALACTAM DISODIUM] | 0.564 L/h/kg | 0.16 L/kg | 0.28 L/kg | 0.2 L/kg | 0.27 L/kg | 0.132 L/h/kg | 0.12 L/h/kg | 0.072 L/h/kg |
| O=P1(N(CCCl)CCCl)NCCCO1 (stereo not drawn) [CYCLOPHOSPHAMIDE ANHYDROUS] | 0.72 L/h/kg | 1.3 L/kg | 0.8 L/kg | 0.7 L/kg | 0.7 L/kg | 1.2 L/h/kg | 1.2 L/h/kg | 0.156 L/h/kg |
| Cc1cccc(C)c1NC(=O)NCCCNC(C)C | 4.92 L/h/kg | 3.8 L/kg | 3.2 L/kg | 1.2 L/kg | 1.4 L/kg | 0.78 L/h/kg | 1.92 L/h/kg | 0.432 L/h/kg |
| C#CCCCC(=O)c1cc(C(C)(C)C)c(O)c(C(C)(C)C)c1 [TEBUFELONE] | 2.52 L/h/kg | 53 L/kg | 10 L/kg | 81 L/kg | 30 L/kg | 1.92 L/h/kg | 1.02 L/h/kg | 0.594 L/h/kg |
| O=C(O)C[C@H](NC(=O)CP(=O)(O)O)C(=O)O [PALA] | 3.18 L/h/kg | 0.35 L/kg | 4.5 L/kg | 0.6 L/kg | 0.35 L/kg | 0.42 L/h/kg | 0.222 L/h/kg | 0.048 L/h/kg |
| CO/N=C(\C(=O)N[C@@H]1C(=O)N2C(C(=O)O)=C(CSc3nc(C)c(CC(=O)O)s3)CS[C@H]12)c1csc(N)n1 [CEFODIZIME] | 0.066 L/h/kg | 0.15 L/kg | 0.18 L/kg | 0.26 L/kg | 0.15 L/kg | 0.246 L/h/kg | 0.072 L/h/kg | 0.0438 L/h/kg |
| Cc1cc(=O)n(-c2ccccc2)n1C [ANTIPYRINE] | 0.6 L/h/kg | 0.74 L/kg | 0.97 L/kg | 0.62 L/kg | 0.87 L/kg | 0.33 L/h/kg | 0.264 L/h/kg | 0.0396 L/h/kg |
| CC[C@]1(O)C[C@H]2CN(CCc3c([nH]c4ccccc34)[C@@](C(=O)OC)(c3cc4c(cc3OC)N(C=O)[C@H]3[C@@](O)(C(=O)OC)[C@H](OC(C)=O)[C@]5(CC)C=CCN6CC[C@]43[C@@H]65)C2)C1 [VINCRISTINE] | 0.12 L/h/kg | 1.3 L/kg | 0.41 L/kg | 3.1 L/kg | 8 L/kg | 0.588 L/h/kg | 0.288 L/h/kg | 0.108 L/h/kg |
| N[C@H](C(=O)O)[C@@H]1CC(Cl)=NO1 [ACIVICIN] | 0.312 L/h/kg | 0.56 L/kg | 0.65 L/kg | 0.5 L/kg | 0.58 L/kg | 0.078 L/h/kg | 0.198 L/h/kg | 0.0468 L/h/kg |
| c1ccc(C2(N3CCCCC3)CCCCC2)cc1 [PHENCYCLIDINE] | 7.32 L/h/kg | 7.3 L/kg | 23 L/kg | 17 L/kg | 6.2 L/kg | 3 L/h/kg | 2.22 L/h/kg | 0.294 L/h/kg |
| CO[C@@]1(NC(=O)C2SC(=C(C(N)=O)C(=O)O)S2)C(=O)N2C(C(=O)O)=C(CSc3nnnn3C)CS[C@@H]21 (stereo partly drawn) [CEFOTETAN] | 0.78 L/h/kg | 0.17 L/kg | 0.25 L/kg | 0.25 L/kg | 0.13 L/kg | 0.24 L/h/kg | 0.102 L/h/kg | 0.03 L/h/kg |
| CC(=O)CC(c1ccccc1)c1c(O)c2ccccc2oc1=O (stereo not drawn) [WARFARIN] | 0.0216 L/h/kg | 0.11 L/kg | 0.22 L/kg | 0.28 L/kg | 0.11 L/kg | 0.018 L/h/kg | 0.0078 L/h/kg | 0.0024 L/h/kg |
| O=[N+]([O-])O[C@@H]1CO[C@H]2[C@@H]1OC[C@@H]2O [ISOSORBIDE MONONITRATE] | 0.15 L/h/kg | 0.5 L/kg | 0.97 L/kg | 0.8 L/kg | 0.6 L/kg | 0.414 L/h/kg | 0.66 L/h/kg | 0.102 L/h/kg |
| CN(C)C(=O)CCSC(SCCC(=O)O)c1cccc(/C=C/c2ccc3ccc(Cl)cc3n2)c1 (stereo not drawn) [MK-571] | 2.22 L/h/kg | 0.32 L/kg | 0.59 L/kg | 0.23 L/kg | 0.09 L/kg | 0.24 L/h/kg | 0.114 L/h/kg | 0.0552 L/h/kg |
| COCCOC(=O)C1=C(C)NC(C)=C(C(=O)OC(C)C)C1c1cccc([N+](=O)[O-])c1 (stereo not drawn) [NIMODIPINE] | 3.36 L/h/kg | 3.6 L/kg | 0.96 L/kg | 3.2 L/kg | 0.9 L/kg | 2.04 L/h/kg | 1.98 L/h/kg | 0.84 L/h/kg |
| Cc1cccnc1NS(=O)(=O)c1ccc(C#Cc2ccc(O)c(C(=O)O)c2)cc1 [SUSALIMOD] | 3.72 L/h/kg | 0.08 L/kg | 1.2 L/kg | 0.19 L/kg | 0.12 L/kg | 1.2 L/h/kg | 0.12 L/h/kg | 0.0054 L/h/kg |

| SMILES | clearance [1] | Vd [2] | Vdss [3] | Vd [4] | Vd [5] | clearance [6] | clearance [7] | clearance [8] |
| --- | --- | --- | --- | --- | --- | --- | --- | --- |
| C[C@@H](O)[C@H]1C(=O)N2C(C(=O)[O-])=C(SC3Cn4cnc[n+]4C3)[C@H](C)[C@H]12 (stereo partly drawn) [BIAPENEM] | 0.96 L/h/kg | 0.23 L/kg | 0.24 L/kg | 0.28 L/kg | 0.25 L/kg | 0.372 L/h/kg | 0.318 L/h/kg | 0.162 L/h/kg |
| O=c1ccc2ccccc2o1 [COUMARIN] | 1.2 L/h/kg | 4.5 L/kg | 1.3 L/kg | 6.5 L/kg | 2.2 L/kg | 1.32 L/h/kg | 2.04 L/h/kg | 1.02 L/h/kg |
| C[C@@H]1[C@H](O)[C@@H](C)/C=C/C=C/C=C/C=C/C=C/C=C/C=C/[C@H](O[C@@H]2O[C@H](C)[C@@H](O)[C@H](N)[C@@H]2O)C[C@@H]2O[C@](O)(C[C@@H](O)C[C@@H](O)[C@H](O)CC[C@@H](O)C[C@@H](O)CC(=O)O[C@H]1C)C[C@H](O)[C@H]2C(=O)O [AMPHOTERICIN B] | 0.12 L/h/kg | 0.2 L/kg | 2.3 L/kg | 0.5 L/kg | 4 L/kg | 0.006 L/h/kg | 0.006 L/h/kg | 0.024 L/h/kg |
| N[C@@H](Cc1ccc(O)c(O)c1)C(=O)O [LEVODOPA] | 6.54 L/h/kg | 0.47 L/kg | 9.8 L/kg | 0.4 L/kg | 1.7 L/kg | 1.14 L/h/kg | 1.02 L/h/kg | 1.38 L/h/kg |
| CC(C)N(CCC(C(N)=O)(c1ccccc1)c1ccccn1)C(C)C (stereo not drawn) [DISOPYRAMIDE] | 2.04 L/h/kg | 2 L/kg | 6.2 L/kg | 2.3 L/kg | 0.78 L/kg | 1.74 L/h/kg | 1.14 L/h/kg | 0.144 L/h/kg |
| CN1C(=O)OC(C)(C)C1=O [TRIMETHADIONE] | 0.342 L/h/kg | 0.66 L/kg | 0.66 L/kg | 0.63 L/kg | 0.61 L/kg | 0.174 L/h/kg | 0.096 L/h/kg | 0.042 L/h/kg |
| CO[C@@]1(NC(=O)CSCC#N)C(=O)N2C(C(=O)O)=C(CSc3nnnn3C)CS[C@@H]21 [CEFMETAZOLE] | 2.4 L/h/kg | 0.14 L/kg | 0.49 L/kg | 0.24 L/kg | 0.14 L/kg | 0.318 L/h/kg | 0.228 L/h/kg | 0.108 L/h/kg |
| CC[C@]1(O)C[C@@H]2CN(CCc3c([nH]c4ccccc34)[C@@](C(=O)OC)(c3cc4c(cc3OC)N(C)[C@H]3[C@@](O)(C(=O)OC)[C@H](OC(C)=O)[C@]5(CC)C=CCN6CC[C@]43[C@@H]65)C2)C1 [VINBLASTINE] | 1.5 L/h/kg | 1.5 L/kg | 12 L/kg | 2.3 L/kg | 24 L/kg | 1.32 L/h/kg | 0.42 L/h/kg | 0.72 L/h/kg |
| Cc1cc(O)c(C(=O)N[C@@H](C(=O)N[C@@H]2C(=O)N3C(C(=O)O)=C(CSc4nnnn4C)CS[C@H]23)c2ccc(O)cc2)cn1 [CEFPIRAMIDE] | 0.57 L/h/kg | 0.1 L/kg | 0.26 L/kg | 0.45 L/kg | 0.11 L/kg | 0.306 L/h/kg | 0.0312 L/h/kg | 0.0168 L/h/kg |
| O=C(OC1C[C@@H]2CC3C[C@@H](C1)N2CC3O)c1c[nH]c2ccccc12 (stereo partly drawn) | 5.64 L/h/kg | 28 L/kg | 15 L/kg | 9.6 L/kg | 11 L/kg | 1.62 L/h/kg | 4.62 L/h/kg | 1.32 L/h/kg |
| NC(=O)c1cc[n+](COC[n+]2ccccc2/C=N/O)cc1 [HI-6] | 0.588 L/h/kg | 0.34 L/kg | 0.3 L/kg | 0.26 L/kg | 0.39 L/kg | 0.222 L/h/kg | 0.516 L/h/kg | 0.192 L/h/kg |
| C[C@@H](O)[C@H]1C(=O)N2C(C(=O)O)=C(S[C@@H]3CN[C@H](C(=O)N(C)C)C3)[C@H](C)[C@H]12 [MEROPENEM] | 2.82 L/h/kg | 0.3 L/kg | 0.3 L/kg | 0.25 L/kg | 0.3 L/kg | 0.24 L/h/kg | 0.42 L/h/kg | 0.24 L/h/kg |
| CC(=N)N1CC[C@H](SC2=C(C(=O)O)N3C(=O)[C@H]([C@@H](C)O)[C@H]3C2)C1 | 1.68 L/h/kg | 0.3 L/kg | 0.19 L/kg | 0.22 L/kg | 0.18 L/kg | 0.294 L/h/kg | 0.39 L/h/kg | 0.186 L/h/kg |
| CC#CCC(C)[C@H](O)/C=C/[C@@H]1[C@H]2C/C(=C/CCCC(=O)O)C[C@H]2C[C@H]1O (stereo partly drawn) [ILOPROST] | 1.92 L/h/kg | 0.9 L/kg | 0.8 L/kg | 0.9 L/kg | 0.4 L/kg | 4.02 L/h/kg | 3.48 L/h/kg | 1.02 L/h/kg |
| O=C1CN=C(c2ccccc2Cl)c2cc([N+](=O)[O-])ccc2N1 [CLONAZEPAM] | 1.26 L/h/kg | 6.8 L/kg | 3 L/kg | 1.6 L/kg | 5.5 L/kg | 0.66 L/h/kg | 0.84 L/h/kg | 0.096 L/h/kg |
